Measured values published in paper PMC7866863, “A Cellular Assay for the Identification and Characterization of Connexin Gap Junction Modulators” (International Journal of Molecular Sciences, 2021).

Target: T1, Cx43 (connexin 43 gap junction) (Mus musculus, UniProt P23242)
T1 construct: gene Gja1; mouse Cx43 coding region, recombinantly expressed in HeLa donor and biosensor cells
Experiment: HeLa coculture cAMP-transfer GloSensor luminescence assay for Cx43 gap junctions
Format: cell-based

T1 sequence (P23242 2-382): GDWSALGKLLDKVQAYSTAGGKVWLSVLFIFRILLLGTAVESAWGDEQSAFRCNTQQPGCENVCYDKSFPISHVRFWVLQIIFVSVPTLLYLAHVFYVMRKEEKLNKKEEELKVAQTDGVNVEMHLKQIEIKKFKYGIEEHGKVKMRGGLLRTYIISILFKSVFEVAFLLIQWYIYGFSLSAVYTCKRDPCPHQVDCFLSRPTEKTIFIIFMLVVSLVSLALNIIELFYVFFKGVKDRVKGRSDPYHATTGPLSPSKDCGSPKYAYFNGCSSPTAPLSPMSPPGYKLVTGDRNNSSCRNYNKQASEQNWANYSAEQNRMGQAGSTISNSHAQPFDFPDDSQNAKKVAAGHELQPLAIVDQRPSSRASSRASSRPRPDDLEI

- IC50: 44.5 ± 4.8 µM
Structure (SMILES): CC1(C)[C@@H](OC(=O)CCC(=O)O)CC[C@]2(C)[C@H]3C(=O)C=C4[C@@H]5C[C@@](C)(C(=O)O)CC[C@]5(C)CC[C@@]4(C)[C@]3(C)CC[C@@H]12 [carbenoxolone]
